Experimental data: patent US8158621B2, “Methods of treating or preventing autoimmune diseases with 2,4-pyrimidinediamine compounds” (Rigel Pharmaceuticals, Inc., priority 2002, dated 2012)

Assays:
[1] = Pilot dose finding studies (oral); type: in vivo
CHMC cells = experiment: ionomycin-induced Ca2+ flux in CHMC cells; type: cell-based, human; details: 10 μM
[2] = Mouse collagen antibody-induced arthritis (CAIA); type: in vivo, Balb/c mice
Method: Arthrogen-CIA® Arthritis-inducing Monoclonal Antibody Cocktail (Chemicon International Inc.) is administered intravenously to Balb/c mice (2mg/mouse) on Day 0. Forty-eight hours later, 100 μl of LPS (25 μg) is injected intraperitoneally. On Day 4, toes may appear swollen. By Day 5, one or two paws (particular the hind legs) begin to appear red and swollen. On Day 6, and thereafter, red and swollen paws will remain for at least 1-2 weeks. During the study, the clinical signs of inflammation are scored to evaluate the intensity of edema in the paws. The severity of arthritis is recorded as the sum score of both hind paws for each animal (possible maximum score of 8). The degree of inflammation with involved paws is evaluated by measurement of diameter of the paws. Body weight changes are monitored.
Animals are treated at the time of induction of arthritis, beginning on Day 0. Test compounds and control compounds are administered once a day (q.d.) or twice a day (b.i.d.), via per os (PO), depending on previously established PK profiles.
At the end of the study (1-2 weeks after induction of arthritis), mice are euthanized and the paws are transected at the distal tibia using a guillotine and weighed. The mean±standard error of the mean (SEM) for each group is determined each day from individual animal clinical scores, and hind paw weights for each experimental group are calculated and recorded at study termination. Histopathological evaluation of paws are obtained.

[3] = Rat collagen-induced arthritis (CIA); type: in vivo, LOU rats; details: for Blinded radiographic scores (scale 0-6): Day 28
Method: In both protocols, clinical scores were obtained daily, and body weights are measured twice weekly. At Day 28, radiographic scores were obtained, and scrum levels of collagen II antibody were measured by ELISA.

CNC(=O)COc1cccc(Nc2ncc(F)c(Nc3ccc4c(c3)NCCO4)n2)c1 [Compound R921219]
doses not tolerated ([1]; multiple (7-day) doses): ≥ 200 mg/kg/day | NOEL (no observed effect level) ([1]; single oral dose): 600 mg/kg

Oc1cccc(Nc2ncc(F)c(Nc3cccc(O)c3)n2)c1 [Compound R921218]
ionomycin-induced Ca2+ flux (CHMC cells): no effect

Nc1cccc(Nc2ncc(F)c(Nc3cccc(N)c3)n2)c1 [Compound R921302]
Group Average Histopathological Score (0-15), average total score ± SD ([2]; 100 mg/kg, twice daily): 5.1 ± 1.9 | reduction of paw weight compared with vehicle control group ([2]; end of study): 99.9% | histopathological evaluation of the resected paws ([2]; mouse, in vivo): lesions of lesser severity | arthritis score ([3]; 300 mg/kg at disease onset, Day 16 to Day 28): significantly lower arthritis score | mean clinical scores compared with vehicle controls ([3]; 300 mg/kg/day from day of immunization, Days 10-28): significantly reduced | erosions and soft tissue swelling ([3]; 300 mg/kg/day, prophylactically or after disease onset): precluded the development of erosions and reduced soft tissue swelling | Blinded radiographic scores (scale 0-6) ([3]; once daily 150 mg/kg/day, prevention regimen): 2.4±0.006 | Blinded radiographic scores (scale 0-6) ([3]; once daily 300 mg/kg/day at onset of disease): 0.45±0.031 | Blinded radiographic scores (scale 0-6) ([3]; once daily 300 mg/kg/day, prevention regimen): 0.13 ±0.000001 | serum anti-collagen II antibody ([3]; data not shown): marked reduction
